Molecular target: T1, human KDELR1 (Homo sapiens, UniProt P24390)
T1 construct: expressed in transfected cells; host or cells: COS-7
Assay: ER retrieval assay, WT KDELR1-GFP
Type: cell-based
Details: COS-7 cells, WT human KDEL receptor-GFP with mScarlet ligand
Text: To create KDELR1-GFP and KDELR2-GFP, the reading frames for Homo sapiens KDELR1 (Uniprot: P24390) and KDELR2 (Uniprot: P33947) were cloned into the pEF5/FRT low level mammalian expression vector with a C-terminal 20 amino acid linker made up of 5 copies of Gly-Ser-Ser-Ser followed by GFP. Specific point mutations were introduced using the Quickchange protocol (Stratagene) and are described in the key resources table and figures. To create the mScarlet-KDEL^sec ligand construct, mScarlet with an N-terminal hGH signal peptide and the 16 C-terminal residues of human BiP at its C-terminus, containing the KDEL signal, was cloned into the pcDNA3.1 vector. […] The Golgi marker protein TGN46 was detected by antibody (sheep anti-TGN46 AHP500G; AbD Serotec) and an Alexa 647 conjugated secondary anti-sheep secondary (A-21448, Invitrogen). In Figure 1d and e, endogenous KDELR was detected by antibody (mouse anti-KDELR ADI-VAA-PT048; Enzo Life Sciences) and Alexa 488 conjugated anti-mouse secondary antibody (A-21202, Invitrogen). For retrieval assays in other figures, KDELR-GFP fusion proteins were directly detected by fluorescence. The mScarlet-xDEL fusion proteins were directly detected by fluorescence. […] The fraction of KDEL receptor in the Golgi apparatus was calculated by dividing the Golgi signal by the total cell signal. […]

T1 sequence (P24390 whole entry): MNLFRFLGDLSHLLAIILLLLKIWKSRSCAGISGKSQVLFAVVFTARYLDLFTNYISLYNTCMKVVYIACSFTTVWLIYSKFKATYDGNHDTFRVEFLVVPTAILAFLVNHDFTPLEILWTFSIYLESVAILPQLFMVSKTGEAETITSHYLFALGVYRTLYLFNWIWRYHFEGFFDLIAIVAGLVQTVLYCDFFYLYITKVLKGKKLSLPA

## ADEL [pcDNA3.1 hGHss-mScarlet-H. sapiens BiP639-654K651A (ADEL^SEC), secreted mScarlet fusion with human BiP C-terminus, ADEL signal]
  ligand-induced receptor retrieval to the ER (in words): does not activate

Reference: paper PMC8248988, “A signal capture and proofreading mechanism for the KDEL-receptor explains selectivity and dynamic range in ER retrieval” (eLife, 2021)
